Among the test systems are HCT-15 colon; SK-MEL-28 melanoma; RXF 393 renal; K-562 leukemia; HOP-62 NSCLC; OVCAR-5 ovarian; PC-3 prostate; SK-OV-3 ovarian; T-47D breast; EKVX NSCLC.
What all share (experiment): inhibition of tumour cell growth, NCI panel, 48 h

Values joined by “and” are separate entries in the source; they are usually repeats but may differ in a detail not shown here. Equal values may be shown once.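 Five compound concentrations were applied to cells in 96-well plates for 48 hours; endpoints were derived by simple linear interpolation of the resulting dose-response curve. GI50 is the concentration that inhibits growth by half. TGI denotes the concentration required for complete inhibition of growth.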

Turning to `C=C(CN1CCc2ccccc2C1)c1ccc(/C=C/C(=O)Nc2ccccc2N)cc1`, the GI50 in the experiment on HCT-15 colon was 1.69 µM; in the experiment with SK-MEL-28 melanoma, 46.7 µM; with RXF 393 renal it was 12.1 µM; in the experiment on K-562 leukemia, 5.49 µM; in the experiment on HOP-62 NSCLC, 5.17 µM; in the experiment on OVCAR-5 ovarian, 12.8 µM. Further, the GI50 with PC-3 prostate was 4.05 µM; in the experiment with SK-OV-3 ovarian, 66 µM; in the experiment with T-47D breast it was 10.5 µM; in the experiment with EKVX NSCLC, 10.4 µM. Further, the TGI with HCT-15 colon is 62.9 µM; in the experiment with SK-MEL-28 melanoma, > 100 µM; in the experiment with RXF 393 renal, > 100 µM; in the experiment on K-562 leukemia it was > 100 µM; in the experiment with HOP-62 NSCLC, > 100 µM; in the experiment on OVCAR-5 ovarian, > 100 µM. Moreover, the TGI with PC-3 prostate, in the experiment on SK-OV-3 ovarian, in the experiment on T-47D breast and in the experiment on EKVX NSCLC was > 100 µM throughout.

As for `Cc1c2ncccc2c(C)c2c1[nH]c1ccc(O)cc12`, the GI50 in the experiment on HCT-15 colon is 6.16 µM and 6.53 µM; in the experiment on RXF 393 renal it was 10.7 µM; with K-562 leukemia, 5.04 µM; in the experiment with HOP-62 NSCLC, 4.01 µM and 5.07 µM; in the experiment on OVCAR-5 ovarian, 46.6 µM; in the experiment with PC-3 prostate, 7.27 µM and 5.01 µM. The results for the GI50 in the experiment on T-47D breast and with EKVX NSCLC were 42.8 µM and 1.01 µM, respectively. Besides, the TGI was 17.6 µM and 40 µM in the experiment on HCT-15 colon; 27.3 µM in the experiment on SK-MEL-28 melanoma; 9.81 µM and 43 µM in the experiment on RXF 393 renal; 20.9 µM and 50.4 µM with K-562 leukemia; 10.8 µM and 59.5 µM in the experiment with HOP-62 NSCLC; 24.4 µM and 120 µM in the experiment with OVCAR-5 ovarian. Besides, the TGI is 13.7 µM and 12.2 µM in the experiment with PC-3 prostate; 11.4 µM with SK-OV-3 ovarian; 17.3 µM and 63 µM with EKVX NSCLC.

For `O=P(Oc1ccccc1)(Oc1ccccc1)C(O)c1ccccc1` (stereo unspecified), the GI50 with HCT-15 colon was > 100 µM; in the experiment with SK-MEL-28 melanoma, 85.7 µM; in the experiment with RXF 393 renal, 60.6 µM; in the experiment with K-562 leukemia, 46.8 µM; with HOP-62 NSCLC, 39.3 µM; with OVCAR-5 ovarian, > 100 µM. The GI50 was 35.8 µM in the experiment with PC-3 prostate, > 100 µM in the experiment on SK-OV-3 ovarian, 25.2 µM with T-47D breast and 26.5 µM in the experiment with EKVX NSCLC. Moreover, the TGI in the experiment with HCT-15 colon, in the experiment on SK-MEL-28 melanoma, in the experiment with RXF 393 renal, in the experiment on K-562 leukemia, in the experiment on HOP-62 NSCLC and with OVCAR-5 ovarian was > 100 µM in each case. The TGI in the experiment with PC-3 prostate, in the experiment on SK-OV-3 ovarian, in the experiment with T-47D breast and in the experiment on EKVX NSCLC was > 100 µM each time.

In the case of `CN(C)CCCNC(=O)c1cc(NC(=O)c2cc(NC(=O)CCCN3c4ccccc4C=Cc4ccccc43)cn2C)cn1C`, the GI50 with HCT-15 colon is 25.7 µM; in the experiment with RXF 393 renal it was 8.61 µM; in the experiment on K-562 leukemia, 2.12 µM; in the experiment with HOP-62 NSCLC, 10.2 µM; with OVCAR-5 ovarian it was 19.7 µM; in the experiment with PC-3 prostate, 5.33 µM. Moreover, the GI50 with SK-OV-3 ovarian was 21.9 µM; in the experiment on T-47D breast, 17.1 µM; with EKVX NSCLC it was 17 µM. For the same compound, the TGI in the experiment with HCT-15 colon was 82.7 µM; with RXF 393 renal, 85 µM; in the experiment with K-562 leukemia, 4.97 µM; in the experiment on HOP-62 NSCLC, > 100 µM; in the experiment with OVCAR-5 ovarian, 46.9 µM; in the experiment with PC-3 prostate, > 100 µM. Also, the TGI is > 100 µM in the experiment with SK-OV-3 ovarian, > 100 µM in the experiment with T-47D breast and 71.3 µM with EKVX NSCLC.

Regarding `COC(=O)/C=C1\SC(=Nc2ccc(C(F)(F)F)cc2)N(CCc2c[nH]c3ccccc23)C1=O`, the GI50 was 1.38 µM in the experiment with HCT-15 colon; 1.87 µM in the experiment on SK-MEL-28 melanoma; 1.43 µM with RXF 393 renal; 1.66 µM in the experiment on K-562 leukemia; 1.79 µM in the experiment on OVCAR-5 ovarian; 1.62 µM with PC-3 prostate. The GI50 is 2.05 µM in the experiment with SK-OV-3 ovarian, 1.19 µM with T-47D breast and 1.86 µM in the experiment on EKVX NSCLC. In addition, the TGI stood at 2.95 µM in the experiment on HCT-15 colon; 3.55 µM in the experiment on SK-MEL-28 melanoma; 2.98 µM in the experiment with RXF 393 renal; 6.42 µM in the experiment with K-562 leukemia; 3.38 µM with OVCAR-5 ovarian; 3.32 µM with PC-3 prostate. Moreover, the TGI in the experiment with SK-OV-3 ovarian is 4.06 µM; with T-47D breast, 3.17 µM; in the experiment with EKVX NSCLC, 3.81 µM.

Take `COc1ccc(-n2c(-c3ccc(NC(=O)CCCl)cc3)nnc2-c2cc(OC)c(OC)c(OC)c2)cc1`: the GI50 with HCT-15 colon was 3.68 µM; in the experiment with SK-MEL-28 melanoma it was 3.56 µM; in the experiment with RXF 393 renal, 2.44 µM; in the experiment on HOP-62 NSCLC, 3.49 µM; in the experiment on OVCAR-5 ovarian it was 6.85 µM; in the experiment with PC-3 prostate, 4.45 µM. The GI50 in the experiment with SK-OV-3 ovarian was 4.34 µM; in the experiment with T-47D breast, 3.01 µM; in the experiment on EKVX NSCLC, 3 µM. Moreover, the TGI in the experiment on HCT-15 colon was > 14.3 µM; in the experiment with SK-MEL-28 melanoma it was 14 µM; with RXF 393 renal, 5.02 µM; in the experiment on HOP-62 NSCLC, 13.4 µM; in the experiment on OVCAR-5 ovarian, > 14.3 µM; in the experiment on PC-3 prostate, > 14.3 µM. The results for the TGI in the experiment on SK-OV-3 ovarian, in the experiment on T-47D breast and with EKVX NSCLC were > 14.3 µM, 14 µM and > 14.3 µM, respectively.

In the case of `CC(C)SC1SCC2C(=O)N(C)C3(CC3C)C(=O)OCC(NC(=O)c3nc4ccccc4cc3O)C(=O)NC(C)C(=O)N(C)C1C(=O)N(C)C1(CC1C)C(=O)OCC(NC(=O)c1nc3ccccc3cc1O)C(=O)NC(C)C(=O)N2C` (stereo unspecified), the TGI is < 0.0001 µM in the experiment on SK-MEL-28 melanoma; < 0.0001 µM in the experiment on RXF 393 renal; < 0.0001 µM in the experiment on K-562 leukemia; < 0.0001 µM in the experiment with PC-3 prostate; 4.92 µM with SK-OV-3 ovarian; > 100 µM in the experiment with T-47D breast. Also, the TGI in the experiment with EKVX NSCLC was 0.0759 µM.

Turning to `Cc1cc(S(=O)(=O)Nc2nnc(-c3ccco3)c(-c3ccco3)n2)c(SCc2ccccc2)cc1Cl`, the GI50 in the experiment with HCT-15 colon is 21.1 µM; with SK-MEL-28 melanoma it was 20.7 µM; in the experiment on RXF 393 renal it was 22.8 µM; in the experiment with K-562 leukemia, 28.2 µM; in the experiment with HOP-62 NSCLC, 25.5 µM; in the experiment with OVCAR-5 ovarian, 25.6 µM. In addition, the GI50 is 28 µM in the experiment on PC-3 prostate, 25.2 µM in the experiment with T-47D breast and 17.5 µM with EKVX NSCLC. In addition, the TGI in the experiment on HCT-15 colon was 43.3 µM; in the experiment with SK-MEL-28 melanoma it was 40.5 µM; in the experiment on RXF 393 renal, 47.6 µM; in the experiment with K-562 leukemia, > 100 µM; in the experiment on HOP-62 NSCLC, 53.3 µM; with OVCAR-5 ovarian it was 49.8 µM. Further, the figures for the TGI in the experiment with PC-3 prostate, in the experiment on T-47D breast and in the experiment with EKVX NSCLC were 57 µM, 48.6 µM and 37.6 µM, respectively.

(Values after PubChem BioAssay (NCI).)
